Test results from ChEMBL document CHEMBL3608259, “Carbonic Anhydrase Glycoinhibitors belonging to the Aminoxysulfonamide Series” (ACS Med Chem Lett, 2015).
pKi: −log10 of the molar value.

Biological target: Carbonic anhydrase 9 (Homo sapiens, UniProt Q16790)
Description: Inhibition of human recombinant carbonic anhydrase-9 catalytic domain by stopped-flow CO2 hydration assay

Compound | pKi
NS(=O)(=O)ONC(=O)OCc1ccccc1 | 7.24
NOS(=O)(=O)NC(=O)OCc1ccccc1 | 7.11
NOS(=O)(=O)NC1C=C[C@H](O)[C@@H](CO)O1 (mixture of isomers) | 7.07
CC(=O)OC[C@H]1OC(NS(=O)(=O)ON)C=C[C@@H]1OC(C)=O (mixture of isomers) | 7.05
CC(=O)OC[C@H]1OC(NS(=O)(=O)ON)C=C[C@H]1OC(C)=O (mixture of isomers) | 7.12
CC(=O)O[C@H]1C=CC(NS(=O)(=O)ON)OC1 (mixture of isomers) | 7.12
CC(=O)O[C@@H]1C=CC(NS(=O)(=O)ON)OC1 (mixture of isomers) | 7.07
CC(=O)O[C@@H]1C=CC(NS(=O)(=O)ON)O[C@H]1C (mixture of isomers) | 7.07
NOS(=O)(=O)NC1C=C[C@@H](O)[C@@H](CO)O1 (mixture of isomers) | 7.21
NOS(=O)(=O)NC1C=C[C@H](O)CO1 (mixture of isomers) | 7.04
NOS(=O)(=O)NC1C=C[C@@H](O)CO1 (mixture of isomers) | 7.13
C[C@@H]1OC(NS(=O)(=O)ON)C=C[C@H]1O (mixture of isomers) | 7.21
